One data set deals with MeWo. Description: Monolayer growth inhibition assay (MTT/MTS), MeWo. It is filed as cell-based. To be noted: MeWo melanoma cell line, treated for 3 days. From the text:
(§1) The MTT is a colorimetric assay to determine the cell proliferation rate. The yellow tetrazolium MTT (3-(4,5-dimethylthiazolyl-2)-2,5-diphenyltetrazolium bromide) is reduced by metabolically active cells, in part by the action of dehydrogenase enzymes, to generate reducing equivalents, such as NADH and NADPH. The resulting intracellular purple formazan can be solubilized and quantified by spectrophotometric means. The signals produced is directly proportional to the cell numbers. Describing the MTT assay in detail, experiments were done using six-point or nine-point drug titrations in multi-well tissue culture dishes, with outer rows left empty. Cells were suspended in complete media at densities of between 10^3 and 10^4 cell/mL, respectively, and added per well. The appropriate medium (200 μL) was then added. […] This plate was incubated at 37° C. for 4 hours and the optical density was measured on a Molecular Devices Thermomax at 490 nm using the Softmax program. […]
(§2) Compound addition began 24 hours after seeding, the same time as the T0 determination. […] The MTS solution was added (as for the To plate) and read 4 hours later. […]
(§3) A panel of Melanoma cell lines were treated with DMSO vehicle control or varying concentrations of LBH589 for 3 days. Cell proliferation was measured on the day of cell plating and on the third day post-treatment. IC50 and LD50 values were calculated as described above.

The next data set has as its system SK-MEL-5. Put plainly: Monolayer growth inhibition assay (MTT/MTS), SK-MEL-5. Type of data set: cell-based. To be noted: SK-MEL-5 melanoma cell line, treated for 3 days.
Text: as §1, §2, §3

The subject of the next data set is A2058. Put plainly: Monolayer growth inhibition assay (MTT/MTS), A2058. To be noted: A2058 melanoma cell line, treated for 3 days. It is filed as cell-based.
Text: as §1, §2, §3

The next data set deals with G-361. Put plainly: Monolayer growth inhibition assay (MTT/MTS), G-361. It is filed as cell-based. To be noted: G-361 melanoma cell line, treated for 3 days.
Text: as §1, §2, §3

A further data set deals with RPMI-7951. Put plainly: Monolayer growth inhibition assay (MTT/MTS), RPMI-7951. Type of data set: cell-based. To be noted: RPMI-7951 melanoma cell line, treated for 3 days.
Text: as §1, §2, §3

In data set [1] the test system is panel of Melanoma cell lines.
Text: as §1, §2, §3

The next data set relates to SK-MEL-28. Description: Monolayer growth inhibition assay (MTT/MTS), SK-MEL-28. To be noted: SK-MEL-28 melanoma cell line, treated for 3 days. It is filed as cell-based.
Text: as §1, §2, §3

The next data set has as its system WM-266-4. Description: Monolayer growth inhibition assay (MTT/MTS), WM-266-4. Type of data set: cell-based. To be noted: WM-266-4 melanoma cell line, treated for 3 days.
Text: as §1, §2, §3

The next data set has as its system A375. Description: Monolayer growth inhibition assay (MTT/MTS), A375. To be noted: A375 melanoma cell line, treated for 3 days. It is filed as cell-based.
Text: as §1, §2, §3

[2] abbreviates: Homo sapiens, 72 h, read-out: IC50 [nM] Measure of Cell Growth Inhibition.
The mark [3] stands for this setting: concentration reducing cell number to 50% of original inoculum.

The structures appear in SMILES notation.

As a reminder, the IC50 is the concentration needed to halve the response being measured. Take `Cc1[nH]c2ccccc2c1CCNCc1ccc(/C=C/C(=O)NO)cc1` [LBH589, N-hydroxy-3-[4-[[[2-(2-methyl-1H-indol-3-yl)-ethyl]-amino]methyl]phenyl]-2E-2-propenamide]: the IC50 with MeWo (setting [2]) was 34.5 nM; in the data set on SK-MEL-5 (setting [2]), 6.15 nM; with A2058 (setting [2]), 17.8 nM; in the data set with G-361 (setting [2]) it was 8.09 nM; in the data set with RPMI-7951 (setting [2]), 27.6 nM; in the data set with SK-MEL-28 (setting [2]), 43.1 nM. Further, the IC50 in the data set on WM-266-4 (setting [2]) was found to be 26.4 nM; with A375 (Homo sapiens, A-375, 72 h, read-out: IC50 [nM] Measure of Cell Growth Inhibition), 32.7 nM. Moreover, the “LD50 (nM) Measure of Cell Kill” value is 157.64 nM in the data set with MeWo (setting [3]); 54.95 nM in the data set on SK-MEL-5 (setting [3]); 58.96 nM in the data set with A2058 (setting [3]); 51.44 nM with G-361 (setting [3]); 71.63 nM with RPMI-7951 (setting [3]); 129.33 nM in the data set with SK-MEL-28 (setting [3]). Besides, the “LD50 (nM) Measure of Cell Kill” value with WM-266-4 (setting [3]) amounted to 73.05 nM; in the data set on A375 (setting [3]), 77.83 nM. Besides, in data set [1] (3 days), the “LD50, cytotoxic effect” value was less than 160 nM. Further, the “IC50 values, anti-proliferative effect” value in data set [1] (all 8 melanoma cell lines examined, treated for 3 days) is recorded as “low nanomolar”.

(Values after patent publication US20110034531A1, “USE OF HDAC INHIBITORS FOR THE TREATMENT OF MELANOMA” (NOVARTIS AG, priority 2007, published 2011).)
